Square brackets hold non-standard residues; d marks the D form. Peptide text beside a SMILES is read from it. * marks the point of attachment. Fmoc = O=C(OCC1c2ccccc2-c2ccccc21)*; Aib = CC(C)(N)C(=O)O
Assay: Storage stability studies of the dipeptide TFA salt
Assay type: physicochemical
Procedure: Fmoc-His(Trt)-Aib-OH (1 moleq., starting material) was suspended in DCM (1.5 mL/g) and TIPS (1.7 moleq.) was added. Cooled (0-10° C.) TFA (3 mL/g) was added and the mixture was stirred at ambient temperature until the reaction was completed (High-performance liquid chromatography (HPLC) conversion). DME (1 mL/g starting material) and TBME (11 mL/g starting material) was added leading to an increase in temperature. The temperature was slowly allowed to return to room temperature (rt) resulting in precipitation of a white solid. The mixture was stirred for an additional 3 hr and filtered. The precipitate was washed twice with TBME (3 mL/g starting material) and dried overnight in vacuo affording the de-tritylated dipeptide as TFA-salt in 90% yield.

Measured: stability (storage)

CC(C)(NC(=O)[C@H](Cc1c[nH]cn1)NC(=O)OCC1c2ccccc2-c2ccccc21)C(=O)O [Example 1, 2-[(S)-2-(9H-Fluoren-9-ylmethoxycarbonylamino)-3-(1H-imidazol-4-yl)-propanoylamino]-2-methyl-propanoic Acid Trifluoracatate] (Fmoc-His-[Aib]-OH)
more than 24 month: freeze (<−15° C.±5° C.) | fridge (5° C.±3° C.) | room temperature (20° C.±3° C.)
